From patent US7652020B2, “Compounds for the treatment of inflammatory disorders” (Schering Corporation, priority 2004, dated 2010) come the findings set out here.

Each structure is given as a SMILES string. Read-outs that look alike come from different tables or passages of the source.

The assay deals with T1, purified catalytic domain of recombinant human TACE (rhTACEc) (Homo sapiens, UniProt P78536, N452Q/S266A).
T1 construct: Residue 215 to 477 with two mutation (S266A and N452Q) and a 6×His tail; 6xHis (C); made in house; host or cells: baculovirus/Hi5 insect cells
T1 sequence (P78536 215-477 S266A/N452Q): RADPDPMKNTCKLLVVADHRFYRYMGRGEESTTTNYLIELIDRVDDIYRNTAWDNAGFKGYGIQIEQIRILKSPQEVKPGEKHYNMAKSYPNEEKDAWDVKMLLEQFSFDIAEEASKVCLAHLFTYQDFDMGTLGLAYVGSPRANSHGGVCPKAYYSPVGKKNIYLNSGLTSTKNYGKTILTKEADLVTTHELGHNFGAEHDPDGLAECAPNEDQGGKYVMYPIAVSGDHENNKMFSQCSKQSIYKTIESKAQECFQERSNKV
Nature of the assay: TACE kinetic assay: cleavage of internally quenched peptide substrate SPDL-3, fluorescence. Format: biochemical. The protocol:
TACE activity is determined by a kinetic assay measuring the rate of increase in fluorescent intensity generated by TACE catalyzed cleavage of an internally quenched peptide substrate (SPDL-3). […] It is purified from the baculovirus/Hi5 cells expression system using affinity chromatography. […] MCA is (7-Methoxycoumarin-4-yl)acetyl. Dpa is N-3-(2,4-Dinitrophenyl)-L-2,3-diaminopropionyl.
A 50 μl assay mixture contains 20 mM HEPES, pH 7.3, 5 mM CaCl2, 100 μM ZnCl2, 2% DMSO, 0.04% Methylcellulose, 30 μM SPDL-3, 70 pM rhTACEc and a test compound. RhTACEc is pre-incubated with the testing compound for 90 min. at 25° C. Reaction is started by addition of the substrate. […] Rate of enzymatic reaction is shown as Units per second. Effect of a test compound is shown as % of TACE activity in the absence of the compound.

[1] abbreviates: TACE, representative compounds, numeric values, read-out: Ki.
Setting [2] is: TACE inhibitory activity, class symbols, read-out: Ki.

Take `CCNc1nc(C2c3ccccc3CN2C(=O)[C@H](O)[C@@H](O)C(=O)N[C@H](C)c2ccc(-n3cccn3)cc2)cs1` (stereo partly drawn): the inhibition constant Ki under setting [1] was 0.16 nM.

For the compound `CCNc1nc(C2c3ccccc3CCN2C(=O)[C@H](O)[C@@H](O)C(=O)N[C@H](C)c2ccc(-n3cccn3)cc2)cs1` (stereo partly drawn), under setting [1], the inhibition constant (Ki) is 0.3 nM.

With `Cc1nc2ccccc2n1Cc1ccc(CNC(=O)[C@H](O)[C@@H](O)C(=O)N2Cc3ccccc3C2)s1`, the Ki (Ki (nM), TACE, representative compounds, numeric values) was found to be 0.5 nM.

On to `CNc1nc([C@H]2c3ccccc3CN2C(=O)[C@H](O)[C@@H](O)C(=O)N[C@H](C)c2ccc(-n3cccn3)cc2)cs1`, for which the inhibitory constant (Ki) under setting [1] is 0.5 nM.

Turning to `CCNc1nnc(C2c3ccccc3CN2C(=O)[C@H](O)[C@@H](O)C(=O)N[C@H](C)c2ccc(-n3cccn3)cc2)o1` (stereo partly drawn), the inhibitory constant (Ki) under setting [1] was 0.56 nM.

As for `C[C@@H](NC(=O)[C@H](O)[C@@H](O)C(=O)N1CC=CC1c1cccc(Cl)c1)c1ccc(-n2cccn2)cc1` (stereo partly drawn), the Ki under setting [1] came out at 0.6 nM.

`C[C@@H](NC(=O)[C@H](O)[C@@H](O)C(=O)N1Cc2ccncc2C1)C1CCN(c2ccccc2OC(F)(F)F)CC1`: under setting [1], the Ki is 0.74 nM.

For the compound `Cc1nc2ccccc2n1Cc1csc(CNC(=O)[C@H](O)[C@@H](O)C(=O)N2CCCC2c2cccc(N(C)C)c2)n1` (stereo partly drawn), the inhibition constant (Ki) under setting [1] came out at 1 nM.

For `Cc1cccc(C)c1Cc1csc(CNC(=O)[C@H](O)[C@@H](O)C(=O)N2CCCC2c2cccc(CN3CCCC3)c2)n1` (stereo partly drawn), the inhibition constant Ki under setting [1] turned out to be 1.4 nM.

Regarding `Cc1cccc(C)c1Cc1csc(CNC(=O)[C@H](O)[C@@H](O)C(=O)N2CCCC2c2cccc(N3CCN(C)CC3)c2)n1` (stereo partly drawn), the Ki under setting [1] worked out at 2.5 nM.

As for `O=C(NCc1ccn(Cc2ccccc2Cl)n1)[C@H](O)[C@@H](O)C(=O)N1CCC[C@@H]1c1cccc(Cl)c1`, the Ki under setting [1] stood at 2.7 nM.

With `CC#CCOc1cc([C@@H](C)NC(=O)[C@H](O)[C@@H](O)C(=O)N2CCC[C@@H]2c2csc(NC(C)C)n2)ccc1-n1cccn1`, the Ki under setting [1] stood at 2.9 nM.

Take `CCOC(=O)c1ccccc1-c1ccc(CNC(=O)[C@H](O)[C@@H](O)C(=O)N2CCC[C@@H]2c2ccccc2)cc1`: the inhibition constant Ki under setting [1] was 3.6 nM.

`C[C@@H](NC(=O)[C@H](O)[C@@H](O)C(=O)N1Cc2ccccc2C1)c1ccc(-c2ccsc2)cc1`: under setting [1], the inhibitory constant (Ki) is 3.8 nM.

In the case of `CCNc1nnc([C@H]2c3ccccc3CN2C(=O)[C@H](O)[C@@H](O)C(=O)N[C@H](C)c2ccc(-n3cccn3)cc2)o1` (stereo in doubt) [Compound 2527], the Ki under setting [2] is less than 20 nM.

For the compound `Cc1noc([C@H]2c3ccccc3CN2C(=O)[C@H](O)[C@@H](O)C(=O)N[C@H](C)c2ccc(-n3cccn3)cc2)n1` (stereo in doubt) [Compound 2528], the inhibition constant (Ki) under setting [2] was less than 20 nM.

Consider `C[C@@H](NC(=O)[C@H](O)[C@@H](O)C(=O)N1CCC[C@@H]1c1cccc(Cl)c1)c1ccc(-n2cccn2)cc1` [Compound 944], for which the Ki under setting [2] was less than 20 nM.

Turning to `N#Cc1cc(F)ccc1N1CCC(CNC(=O)[C@H](O)[C@@H](O)C(=O)N2Cc3cccnc3C2)CC1` [Compound 2003], under setting [2], the inhibitory constant (Ki) was 20 to 100 nM.

For `N#Cc1cc(F)ccc1N1CCC(CNC(=O)[C@H](O)[C@@H](O)C(=O)N2Cc3ccncc3C2)CC1` [Compound 2007], the inhibition constant (Ki) under setting [2] was less than 20 nM.

Regarding `C[C@@H](NC(=O)[C@H](O)[C@@H](O)C(=O)N1Cc2ccc[n+]([O-])c2C1)c1ccc(-n2cccn2)cc1` [Compound 2030], the Ki under setting [2] is 20 to 100 nM.

With `C[C@@H](NC(=O)[C@](C)(O)[C@@H](O)C(=O)N1Cc2cccnc2C1)c1ccc(-n2cccn2)cc1` [Compound 2031], the inhibitory constant (Ki) under setting [2] was less than 20 nM.

Take `C[C@@H](NC(=O)[C@H](O)[C@@H](O)C(=O)N1Cc2cccnc2C1)c1ccc(-n2cccn2)cc1` [Compound 2032]: the Ki under setting [2] is less than 20 nM.

For the compound `CCOc1cc(F)ccc1-c1ccc(CNC(=O)[C@](C)(O)[C@@H](O)C(=O)N2Cc3cccnc3C2)cc1` [Compound 2033], under setting [2], the Ki is less than 20 nM.

On to `C[C@](O)(C(=O)NCC1CCN(c2ccc(F)cc2C#N)CC1)[C@@H](O)C(=O)N1Cc2cccnc2C1` [Compound 2034], for which the Ki under setting [2] fell in the range of 20 to 100 nM.

With `O=C(NCC1CCN(c2ccccc2OC(F)(F)F)CC1)[C@H](O)[C@@H](O)C(=O)N1Cc2cccnc2C1` [Compound 2035], under setting [2], the Ki is less than 20 nM.

As for `CCOc1cc(F)ccc1-c1ccc(CNC(=O)[C@H](O)[C@@H](O)C(=O)N2Cc3cccnc3C2)cc1` [Compound 2036], the inhibition constant (Ki) under setting [2] was less than 20 nM.

As to `O=C(NCc1ccc(-c2ccccc2)cc1)[C@H](O)[C@@H](O)C(=O)N1Cc2cccnc2C1` [Compound 2037], the Ki under setting [2] was 20 to 100 nM.

Consider `C[C@](O)(C(=O)NCC1CCN(c2ccccc2OC(F)(F)F)CC1)[C@@H](O)C(=O)N1Cc2cccnc2C1` [Compound 2038], for which the Ki under setting [2] lay in the range of 20 to 100 nM.

Consider `C[C@@H](NC(=O)[C@](C)(O)[C@@H](O)C(=O)N1Cc2ccncc2C1)c1ccc(-n2cccn2)cc1` [Compound 2039], for which the inhibition constant (Ki) under setting [2] is less than 20 nM.

Turning to `O=C(NCC1CCN(c2ccccc2OC(F)(F)F)CC1)[C@H](O)[C@@H](O)C(=O)N1Cc2ccncc2C1` [Compound 2040], the Ki under setting [2] was less than 20 nM.

On to `C[C@](O)(C(=O)NCC1CCN(c2ccc(F)cc2C#N)CC1)[C@@H](O)C(=O)N1Cc2ccncc2C1` [Compound 2041], for which the inhibition constant (Ki) under setting [2] lay in the range of 20 to 100 nM.

As to `CCOc1cc(F)ccc1-c1ccc(CNC(=O)[C@H](O)[C@@H](O)C(=O)N2Cc3ccncc3C2)cc1` [Compound 2042], the Ki under setting [2] was less than 20 nM.

Regarding `C[C@@H](NC(=O)[C@H](O)[C@@H](O)C(=O)N1Cc2cnc(N)nc2C1)c1ccc(-n2cccn2)cc1` [Compound 2043], the inhibition constant Ki under setting [2] was less than 20 nM.

`C[C@@H](NC(=O)[C@H](O)[C@@H](O)C(=O)N1Cc2cncnc2C1)c1ccc(-n2cccn2)cc1` [Compound 2044]: under setting [2], the inhibition constant Ki was less than 20 nM.

As to `Cc1ncc2c(n1)CN(C(=O)[C@H](O)[C@@H](O)C(=O)N[C@H](C)c1ccc(-n3cccn3)cc1)C2` [Compound 2045], under setting [2], the Ki lay within 100 to 1000 nM.

Consider `C[C@@H](NC(=O)[C@H](O)[C@@H](O)C(=O)N1Cc2cncnc2C1(C)C)c1ccc(-n2cccn2)cc1` [Compound 2046], for which, under setting [2], the Ki lay in the range of 100 to 1000 nM.

`C[C@@H](NC(=O)[C@](C)(O)[C@@H](O)C(=O)N1Cc2cncnc2C1(C)C)c1ccc(-n2cccn2)cc1` [Compound 2047]: the inhibition constant (Ki) under setting [2] was in the range of 100 to 1000 nM.

`CC1c2ncncc2CN1C(=O)[C@H](O)[C@@H](O)C(=O)N[C@H](C)c1ccc(-n2cccn2)cc1` (stereo partly drawn) [Compound 2049]: the Ki under setting [2] fell in the range of 20 to 100 nM.

In the case of `CC1c2cncnc2CN1C(=O)[C@H](O)[C@@H](O)C(=O)N[C@H](C)c1ccc(-n2cccn2)cc1` (stereo partly drawn) [Compound 2050], under setting [2], the inhibitory constant (Ki) is 20 to 100 nM.

Regarding `CC1c2cnc(N)nc2CN1C(=O)[C@H](O)[C@@H](O)C(=O)N[C@H](C)c1ccc(-n2cccn2)cc1` (stereo partly drawn) [Compound 2051], the inhibition constant (Ki) under setting [2] lay within 20 to 100 nM.

As to `CNc1ncc2c(n1)CN(C(=O)[C@H](O)[C@@H](O)C(=O)N[C@H](C)c1ccc(-n3cccn3)cc1)C2` [Compound 2052], under setting [2], the inhibitory constant (Ki) is less than 20 nM.

For `CNc1ncc2c(n1)C(C)N(C(=O)[C@H](O)[C@@H](O)C(=O)N[C@H](C)c1ccc(-n3cccn3)cc1)C2` (stereo partly drawn) [Compound 2053], the inhibition constant (Ki) under setting [2] was in the range of 20 to 100 nM.

As for `CNc1ncc2c(n1)CN(C(=O)[C@H](O)[C@@H](O)C(=O)N[C@H](C)c1ccc(-n3cccn3)cc1)C2C` (stereo partly drawn) [Compound 2054], the Ki under setting [2] is less than 20 nM.

On to `Cc1nc2c(s1)CN(C(=O)[C@H](O)[C@@](C)(O)C(=O)N[C@H](C)c1ccc(-n3cccn3)cc1)C2` [Compound 2057], for which the inhibition constant Ki under setting [2] is less than 20 nM.

For the compound `C[C@@H](NC(=O)[C@H](O)[C@@H](O)C(=O)N1CCc2[nH]ncc2C1)c1ccc(-n2cccn2)cc1` [Compound 2073], the inhibition constant Ki under setting [2] was in the range of 20 to 100 nM.

With `C[C@@H](NC(=O)[C@H](O)[C@@H](O)C(=O)N1CCc2c(cnn2C)C1)c1ccc(-n2cccn2)cc1` [Compound 2074], the inhibition constant (Ki) under setting [2] lay in the range of 20 to 100 nM.

`C[C@@H](NC(=O)[C@H](O)[C@@H](O)C(=O)N1CCc2nc(N)ncc2C1)c1ccc(-n2cccn2)cc1` [Compound 2075]: the inhibition constant (Ki) under setting [2] was 20 to 100 nM.

Turning to `C[C@@H](NC(=O)[C@H](O)[C@@H](O)C(=O)N1CCc2cn[nH]c2C1)c1ccc(-n2cccn2)cc1` [Compound 2076], the inhibition constant (Ki) under setting [2] lay within 20 to 100 nM.

Take `C[C@@H](NC(=O)[C@H](O)[C@@H](O)C(=O)N1CCc2ncccc2C1)c1ccc(-n2cccn2)cc1` [Compound 2077]: the inhibitory constant (Ki) under setting [2] was in the range of 20 to 100 nM.

Turning to `C[C@@H](NC(=O)[C@](C)(O)[C@@H](O)C(=O)N1CCc2ncccc2C1)c1ccc(-n2cccn2)cc1` [Compound 2078], under setting [2], the inhibitory constant (Ki) fell in the range of 100 to 1000 nM.

In the case of `C[C@@H](NC(=O)[C@H](O)[C@@H](O)C(=O)N1CCc2ncncc2C1)c1ccc(-n2cccn2)cc1` [Compound 2079], the Ki under setting [2] lay in the range of 100 to 1000 nM.

Take `C[C@@H](NC(=O)[C@H](O)[C@@H](O)C(=O)N1CCn2cnnc2C1)c1ccc(-n2cccn2)cc1` [Compound 2080]: the inhibition constant (Ki) under setting [2] is 100 to 1000 nM.

Take `C[C@@H](NC(=O)[C@H](O)[C@@H](O)C(=O)N1CCc2nc(N)sc2C1)c1ccc(-n2cccn2)cc1` [Compound 2081]: the inhibition constant Ki under setting [2] is less than 20 nM.

With `C[C@@H](NC(=O)[C@H](O)[C@@H](O)C(=O)N1CCn2ccnc2C1)c1ccc(-n2cccn2)cc1` [Compound 2082], under setting [2], the inhibition constant (Ki) lay in the range of 100 to 1000 nM.

Turning to `C[C@@H](NC(=O)[C@H](O)[C@@H](O)C(=O)N1CCc2cccnc2C1)c1ccc(-n2cccn2)cc1` [Compound 2083], the Ki under setting [2] was 20 to 100 nM.

Take `CNc1nc2c(s1)CN(C(=O)[C@H](O)[C@@H](O)C(=O)N[C@H](C)c1ccc(-n3cccn3)cc1)CC2` [Compound 2084]: the Ki under setting [2] lay in the range of 20 to 100 nM.

Regarding `C[C@@H](NC(=O)[C@H](O)[C@@H](O)C(=O)N1C2CCC1c1cncnc1C2)c1ccc(-n2cccn2)cc1` (stereo partly drawn) [Compound 2093], the Ki under setting [2] is greater than 1000 nM.

As a reminder, the Ki is the equilibrium dissociation constant of an inhibitor or competing ligand from its target.
